These results are taken from patent US8242275B2, “Bicyclic pyrazole compounds as antibacterial agents” (Janssen Pharmaceutica NV, priority 2005, dated 2012).

Converted amounts (≈) assume the structure as drawn. Where two headings read alike, the source gives them in different places.

The subject of test [1] is E. coli KL-16 (GSC strain 4245). Put plainly: In vitro antibacterial activity (MIC assay), broth microdilution. The class given is cell-based. As to conditions: Escherichia coli. In short, it runs like this: (§1)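 Broth microdilution per NCCLS M7-A5: 11-point 2-fold compound dilutions from DMSO stocks, inoculum about 5×10^5 CFU/mL, incubation 35° C for 16–24 h. MIC scored visually against no-compound growth controls, in μg/mL.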

The next test deals with S. aureus ATCC13709. The description is as above. The class given is cell-based. To be noted: Staphylococcus aureus, ATCC13709; read-out: S. aureus ATCC13709 MIC. The method, boiled down:
as §1

The test system of the next test is S. pneumoniae ATCC49619. The description is as above. The class given is cell-based. As to conditions: Streptococcus pneumoniae, ATCC49619; read-out: S. pneumoniae ATCC49619 MIC. In short, it runs like this: as §1
The target in another test is T1, E. coli DNA gyrase (Escherichia coli, UniProt P0AES4+P0AES6).
T1 construct: purchased John Innes Enterprises Ltd. (John Innes Centre, UK)
Kind of test: DNA gyrase inhibition assay (supercoiling). It counts as biochemical. As to conditions: E. coli DNA gyrase supercoiling, visual inspection of gels; read-out: DNA Gyrase IC50 (converted). The method, boiled down: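 Relaxed pBR322 (250 ng) was supercoiled by 0.2 unit gyrase in Tris-HCl pH 7.5, KCl, MgCl2, DTT, spermidine, 1 mM ATP, glycerol, albumin, 0.5% DMSO final, 30 min at 37° C. Products were resolved on 1.0% agarose gels with ethidium bromide staining.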

The target of another test is T2, E. coli topoisomerase IV (Escherichia coli, UniProt P0AFI2+P20083).
T2 construct: purchased John Innes Enterprises Ltd. (John Innes Centre, UK)
Put plainly: Topoisomerase IV inhibition assay (relaxation). It counts as biochemical. To be noted: E. coli topoisomerase IV relaxation, visual inspection of gels; read-out: Topoisomerase IV IC50 (converted). The method, boiled down: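 Relaxation of 300 ng supercoiled pBR322 by 0.9 unit enzyme in HEPES-KOH pH 7.6 with potassium glutamate, Mg(OAc)2, DTT, tRNA, 2 mM ATP and BSA; final DMSO 0.5%. Reactions ran 45 min at 37° C. Products resolved on 1.0% agarose gels and stained with ethidium bromide.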

In the next test the test system is MSSA ATCC 29213. Kind of test: Resistant strains assay (broth microdilution MIC). The class given is cell-based. To be noted: Staphylococcus aureus, read-out: MIC, Column B. As for the experimental part:
(§2) Compounds of the present invention were tested for activity against susceptible and resistant bacterial strains in vitro, and activity was compared to known anti-bacterial agents. Testing protocols followed NCCLS methodology for broth microdilution assays. MIC values in μg/mL are presented in Table 3 for the following strains: Column A: MSSA ATCC13709 (Smith); Column B: MSSA ATCC 29213; Column C: MRSA OC3726 (COL); Column D: MRSA OC2878.
In general terms: Broth dilution looks for growth in wells or tubes with falling amounts of substance.

Another test concerns MSSA ATCC13709 (Smith). Kind of test: Resistant strains assay (broth microdilution MIC). The class given is cell-based. To be noted: Staphylococcus aureus. As for the experimental part: as §2
A further test relates to CipR MRSA OC4159. Put plainly: Resistant strains assay (broth microdilution MIC). It counts as cell-based. To be noted: Staphylococcus aureus, read-out: MIC, Column F. From the text:
(§3) Testing protocols followed NCCLS methodology for broth microdilution assays.

In a further test the test system is CipR MRSA OC4222. Kind of test: Resistant strains assay (broth microdilution MIC). It counts as cell-based. As to conditions: Staphylococcus aureus, read-out: MIC, Column G.
Excerpt: as §3

In the next test the test system is CipR MRSA OC5273. Put plainly: Resistant strains assay (broth microdilution MIC). It counts as cell-based. As to conditions: Staphylococcus aureus, read-out: MIC, Column H.
Excerpt: as §3

For the next test, the system named is MRSA OC2878. Kind of test: Resistant strains assay (broth microdilution MIC). It counts as cell-based. As to conditions: Staphylococcus aureus; MRSA OC2878; read-out: MIC, Column D.
Excerpt: as §3

For the next test, the system named is MRSA OC3726 (COL). Kind of test: Resistant strains assay (broth microdilution MIC). It counts as cell-based. As to conditions: Staphylococcus aureus; MRSA OC3726 (COL); read-out: MIC, Column C.
Excerpt: as §3

A further test relates to CipR MRSA OC3946. Kind of test: Resistant strains assay (broth microdilution MIC). The class given is cell-based. To be noted: Staphylococcus aureus, read-out: MIC, Column E. How it is done: as §2
MIC values in μg/mL are presented in Table 4 for the following strains: Column E: CipR MRSA OC3946; Column F: CipR MRSA OC4159; Column G: CipR MRSA OC4222; Column H: CipR MRSA OC5273.

A further test deals with E. coli ATCC25922. Kind of test: In vitro antibacterial activity (MIC assay), broth microdilution. The class given is cell-based. As to conditions: Escherichia coli; obtained with E. coli ATCC25922; read-out: E. coli MIC, data marked (*). In short, it runs like this: as §1

T1 sequence (P0AES4 whole entry, one chain of several): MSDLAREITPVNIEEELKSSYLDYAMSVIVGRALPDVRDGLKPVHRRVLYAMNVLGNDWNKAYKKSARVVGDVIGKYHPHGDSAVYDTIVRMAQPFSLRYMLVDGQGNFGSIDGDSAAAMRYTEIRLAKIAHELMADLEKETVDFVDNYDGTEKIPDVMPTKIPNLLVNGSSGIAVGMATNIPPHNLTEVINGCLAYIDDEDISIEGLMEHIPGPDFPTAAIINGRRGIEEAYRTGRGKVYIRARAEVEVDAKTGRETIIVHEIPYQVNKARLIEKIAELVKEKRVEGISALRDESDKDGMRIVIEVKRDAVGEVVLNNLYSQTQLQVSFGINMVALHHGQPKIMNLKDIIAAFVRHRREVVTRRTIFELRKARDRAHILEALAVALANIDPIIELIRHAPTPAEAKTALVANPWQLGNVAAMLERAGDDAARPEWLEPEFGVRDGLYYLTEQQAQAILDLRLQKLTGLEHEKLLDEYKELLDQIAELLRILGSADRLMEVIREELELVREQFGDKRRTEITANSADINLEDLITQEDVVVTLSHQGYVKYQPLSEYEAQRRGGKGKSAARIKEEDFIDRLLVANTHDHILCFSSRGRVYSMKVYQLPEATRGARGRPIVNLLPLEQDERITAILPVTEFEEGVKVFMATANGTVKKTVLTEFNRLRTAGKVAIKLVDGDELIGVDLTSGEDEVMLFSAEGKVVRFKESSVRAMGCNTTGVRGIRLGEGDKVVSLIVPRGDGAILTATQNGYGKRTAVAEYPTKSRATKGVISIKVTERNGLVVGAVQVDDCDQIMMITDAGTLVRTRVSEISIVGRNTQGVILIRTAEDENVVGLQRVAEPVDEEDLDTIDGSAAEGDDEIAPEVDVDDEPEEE
T2 sequence (P0AFI2 whole entry): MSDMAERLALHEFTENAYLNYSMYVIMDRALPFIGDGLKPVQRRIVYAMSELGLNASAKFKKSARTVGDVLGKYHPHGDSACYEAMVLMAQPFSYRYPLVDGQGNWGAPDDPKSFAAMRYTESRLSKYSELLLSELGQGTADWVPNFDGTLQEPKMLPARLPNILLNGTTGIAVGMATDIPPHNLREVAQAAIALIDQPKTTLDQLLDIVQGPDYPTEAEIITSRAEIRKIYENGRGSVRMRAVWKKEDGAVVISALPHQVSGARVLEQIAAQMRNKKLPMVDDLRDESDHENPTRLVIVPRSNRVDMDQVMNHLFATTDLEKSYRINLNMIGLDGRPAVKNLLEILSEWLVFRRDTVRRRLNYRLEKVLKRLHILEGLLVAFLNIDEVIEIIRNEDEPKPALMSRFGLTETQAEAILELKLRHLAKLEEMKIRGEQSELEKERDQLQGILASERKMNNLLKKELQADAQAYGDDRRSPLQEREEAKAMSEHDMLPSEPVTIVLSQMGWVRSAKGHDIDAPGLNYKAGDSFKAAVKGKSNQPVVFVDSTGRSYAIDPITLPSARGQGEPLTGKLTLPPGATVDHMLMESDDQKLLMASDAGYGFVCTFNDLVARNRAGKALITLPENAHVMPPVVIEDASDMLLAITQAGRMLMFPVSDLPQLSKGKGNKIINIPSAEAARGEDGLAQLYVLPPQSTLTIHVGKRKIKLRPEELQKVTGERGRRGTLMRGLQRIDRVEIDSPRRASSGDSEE
T2 sequence (P20083 whole entry): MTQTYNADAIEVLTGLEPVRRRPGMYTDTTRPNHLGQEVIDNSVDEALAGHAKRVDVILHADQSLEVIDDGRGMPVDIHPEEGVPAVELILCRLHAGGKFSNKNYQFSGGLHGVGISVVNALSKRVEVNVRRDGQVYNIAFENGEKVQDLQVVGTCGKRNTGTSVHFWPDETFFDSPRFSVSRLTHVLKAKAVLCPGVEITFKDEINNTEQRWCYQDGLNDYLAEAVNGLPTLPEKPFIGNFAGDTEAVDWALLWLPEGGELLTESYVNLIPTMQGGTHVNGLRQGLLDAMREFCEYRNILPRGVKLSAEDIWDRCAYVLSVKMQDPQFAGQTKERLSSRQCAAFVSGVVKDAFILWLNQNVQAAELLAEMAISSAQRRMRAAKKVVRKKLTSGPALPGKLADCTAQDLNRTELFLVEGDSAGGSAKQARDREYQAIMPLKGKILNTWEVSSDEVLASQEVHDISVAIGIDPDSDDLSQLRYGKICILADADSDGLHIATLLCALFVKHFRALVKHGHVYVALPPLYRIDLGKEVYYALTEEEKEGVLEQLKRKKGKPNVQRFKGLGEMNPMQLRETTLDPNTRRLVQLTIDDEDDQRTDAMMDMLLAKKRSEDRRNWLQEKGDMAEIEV

One may read the MIC as the smallest concentration in the dilution series that meets the test's criterion for growth inhibition. In general, IC50 refers to the concentration at which inhibition is half-maximal. In the case of `COc1ccc2nccc(-n3cc4c(n3)CCC(NC/C=C/c3ccccc3)C4)c2n1` (centres unmarked) [Example 46, [2-(6-Methoxy-[1,5]naphthyridin-4-yl)-4,5,6,7-tetrahydro-2H-indazol-5-yl]-(3-phenyl-allyl)-amine], the MIC in [1] was 16 mg/L (≈ 38.9 µM); in the test on S. aureus ATCC13709, 0.06 mg/L (≈ 0.146 µM); in the test on S. pneumoniae ATCC49619, under 0.125 mg/L; in the test on MSSA ATCC 29213, 8 mg/L (≈ 19.4 µM); against MSSA ATCC13709 (Smith), 0.062 mg/L (≈ 0.151 µM); in the test with CipR MRSA OC4159, 0.062 mg/L (≈ 0.151 µM). For the same molecule, the MIC with CipR MRSA OC4222 (CipR MRSA OC4222) turned out to be 0.062 mg/L (≈ 0.151 µM); in the test on CipR MRSA OC5273, 0.125 mg/L (≈ 0.304 µM); in the test on MRSA OC2878 it was 0.125 mg/L (≈ 0.304 µM); with MRSA OC3726 (COL), 0.25 mg/L (≈ 0.608 µM); in the test with CipR MRSA OC3946 (CipR MRSA OC3946) it was 0.062 mg/L (≈ 0.151 µM). Besides, the IC50 is 0.292 µM on E. coli DNA gyrase and under 0.0365 µM at E. coli topoisomerase IV.

As for `COc1ccc2nccc(-n3cc4c(n3)CCC(NCc3ccc5c(c3)OCCO5)C4)c2c1` (centres unmarked) [Example 50, (2,3-Dihydro-benzo[1,4]dioxin-6-ylmethyl)-[2-(6-methoxy-quinolin-4-yl)-4,5,6,7-tetrahydro-2H-indazol-5-yl]-amine], the MIC in [1] was 128 mg/L (≈ 289 µM); in the test with S. aureus ATCC13709, 0.5 mg/L (≈ 1.13 µM); in the test on S. pneumoniae ATCC49619, 1 mg/L (≈ 2.26 µM); in the test with MSSA ATCC 29213, 16 mg/L (≈ 36.2 µM); against MSSA ATCC13709 (Smith), 0.5 mg/L (≈ 1.13 µM); in the test with CipR MRSA OC4159, 16 mg/L (≈ 36.2 µM). Further, the MIC with CipR MRSA OC4222 (CipR MRSA OC4222) was 16 mg/L (≈ 36.2 µM); in the test with CipR MRSA OC5273, 1 mg/L (≈ 2.26 µM); in the test with MRSA OC2878, 0.5 mg/L (≈ 1.13 µM); in the test on MRSA OC3726 (COL), 1 mg/L (≈ 2.26 µM); in the test on CipR MRSA OC3946 (CipR MRSA OC3946) it was 0.5 mg/L (≈ 1.13 µM). Also, the IC50 was 4.52 µM at E. coli DNA gyrase and 0.136 µM on E. coli topoisomerase IV.

For `COc1ccc2nccc(-n3cc4c(n3)CCC(NCc3ccc5c(c3)NC(=O)CS5)C4)c2c1` (centres unmarked) [Example 52, 6-{[2-(6-Methoxy-quinolin-4-yl)-4,5,6,7-tetrahydro-2H-indazol-5-ylamino]-methyl}-4H-benzo[1,4]thiazin-3-one], the MIC is 2 mg/L (≈ 4.24 µM) in [1]; 0.25 mg/L (≈ 0.53 µM) in the test on S. aureus ATCC13709; 1 mg/L (≈ 2.12 µM) in the test with S. pneumoniae ATCC49619; 1 mg/L (≈ 2.12 µM) in the test on MSSA ATCC 29213; 0.25 mg/L (≈ 0.53 µM) in the test on MSSA ATCC13709 (Smith); 0.25 mg/L (≈ 0.53 µM) in the test on CipR MRSA OC4159. Moreover, the MIC in the test on CipR MRSA OC4222 (MRSA) stood at 0.125 mg/L (≈ 0.265 µM); in the test on CipR MRSA OC5273, 0.5 mg/L (≈ 1.06 µM); with MRSA OC2878, 0.5 mg/L (≈ 1.06 µM); in the test with MRSA OC3726 (COL), 0.5 mg/L (≈ 1.06 µM); in the test with CipR MRSA OC3946 (MRSA) it was 0.125 mg/L (≈ 0.265 µM). In addition, the IC50 at E. coli DNA gyrase is 0.265 µM; at E. coli topoisomerase IV, 0.0636 µM.

With `COc1ccc2nccc(-n3cc4c(n3)CCC(NCc3cc5c(cc3F)SCCN5)C4)c2n1` (centres unmarked) [Example 107, (7-Fluoro-3,4-dihydro-2H-benzo[1,4]thiazin-6-ylmethyl)-[2-(6-methoxy-[1,5]naphthyridin-4-yl)-4,5,6,7-tetrahydro-2H-indazol-5-yl]-amine], the MIC in the test with E. coli ATCC25922 was 8 mg/L (≈ 16.8 µM); in the test on S. aureus ATCC13709, 0.25 mg/L (≈ 0.525 µM); with S. pneumoniae ATCC49619 it was 2 mg/L (≈ 4.2 µM); in the test on CipR MRSA OC4222 (CipR MRSA OC4222) it was 0.5 mg/L (≈ 1.05 µM).

Take `COc1ccc2nccc(-n3cc4c(n3)CCC(NC(=O)c3ccc5c(c3)NC(=O)C(C)(C)S5)C4)c2c1` (centres unmarked) [Example 129, 2,2-Dimethyl-3-oxo-3,4-dihydro-2H-benzo[1,4]thiazine-6-carboxylic acid [2-(6-methoxy-quinolin-4-yl)-4,5,6,7-tetrahydro-2H-indazol-5-yl]-amide]: the MIC with E. coli ATCC25922 is over 16 mg/L; with S. aureus ATCC13709, 1 mg/L (≈ 1.95 µM); in the test with S. pneumoniae ATCC49619 it was 4 mg/L (≈ 7.79 µM); with CipR MRSA OC4222 (CipR MRSA OC4222), 1 mg/L (≈ 1.95 µM).
